Results reported in ChEMBL document CHEMBL1201862, “PubChem BioAssay data set” (2004).
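Briefly, cells in 96-well plates were exposed to five compound concentrations for 48 h, and endpoints were estimated by linear interpolation. Here, GI50 denotes the concentration required for 50% inhibition of growth.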 Activity calls are given as the source filed them. No stated cut-off is given here; in the data, active = GI50 up to about 1.1 µM and inactive = higher.

Tests used:
Experiment in all cases: DTP human tumour cell line panel, 48 h
ACHN = system: ACHN
NCI-H522 = system: NCI-H522
EKVX = system: EKVX
DU-145 = system: DU-145
NCI-H23 = system: NCI-H23
A498 = system: A498
U-251 = system: U-251
NCI-H460 = system: NCI-H460
CCRF-CEM = system: CCRF-CEM
HCT-15 = system: HCT-15
SF-268 = system: SF-268
SN12C = system: SN12C
MDA-MB-231 = system: MDA-MB-231
PC-3 = system: PC-3
SNB-19 = system: SNB-19
786-0 = system: 786-0
CAKI-1 = system: CAKI-1
RPMI-8226 = system: RPMI-8226
RXF 393 = system: RXF 393
KM12 = system: KM12

SMILES	GI50 (ACHN)	GI50 (NCI-H522)	GI50 (EKVX)	GI50 (DU-145)	GI50 (NCI-H23)	GI50 (A498)	GI50 (U-251)	GI50 (NCI-H460)	GI50 (CCRF-CEM)	GI50 (HCT-15)	GI50 (SF-268)	GI50 (SN12C)	GI50 (MDA-MB-231)	GI50 (PC-3)	GI50 (SNB-19)	GI50 (786-0)	GI50 (CAKI-1)	GI50 (RPMI-8226)	GI50 (RXF 393)	GI50 (KM12)
Cc1ccc(S[C@@H](C)[C@@](O)(CF)CN(Cc2ccccc2)C(=O)C(F)(F)F)cc1	22.1 µM (inactive)	> 100 µM (inactive)	21.8 µM (inactive)	26.9 µM (inactive)	18.4 µM (inactive)	11.5 µM (inactive)	19 µM (inactive)	15.5 µM (inactive)	11 µM (inactive)	17.1 µM	33.2 µM (inactive)	18.4 µM (inactive)	22.4 µM (inactive)	29.1 µM (inactive)	23.4 µM (inactive)	16.7 µM (inactive)	25.5 µM (inactive)			
COC(=O)c1nsc(OC)c1Cl			> 100 µM (inactive)	> 100 µM (inactive)	> 100 µM (inactive)		> 100 µM (inactive)		> 100 µM (inactive)	> 100 µM	> 100 µM (inactive)	> 100 µM (inactive)	> 100 µM (inactive)	> 100 µM (inactive)	> 100 µM (inactive)	> 100 µM (inactive)	> 100 µM (inactive)	> 100 µM (inactive)	> 100 µM (inactive)	> 100 µM (inactive)
CCC1OC2C(CC=C(C)C)=C3OC(C)(O)C(C)(CC)C(=O)C3=C3OC(=O)C=C1C32 (stereo not given)	26.3 µM (inactive)		29.4 µM (inactive)	58.6 µM (inactive)	28.4 µM (inactive)	23.6 µM (inactive)	36 µM (inactive)	17.4 µM (inactive)	29.7 µM (inactive)	32.4 µM	38.6 µM (inactive)		15.5 µM (inactive)	38.8 µM (inactive)	27.4 µM (inactive)	25.4 µM (inactive)	54.2 µM (inactive)	19.2 µM (inactive)		34.4 µM (inactive)
C=C(C)C1CCC2=CC(CC3(C)OC3C3=CC(C(=O)OC)=C(C1)O3)OC2=O (stereo not given)	> 100 µM (inactive)	85.9 µM (inactive)	> 100 µM (inactive)	> 100 µM (inactive)	> 100 µM (inactive)	> 100 µM (inactive)	> 100 µM (inactive)	> 100 µM (inactive)	83.2 µM (inactive)	> 100 µM	> 100 µM (inactive)	> 100 µM (inactive)	93.3 µM (inactive)	> 100 µM (inactive)	> 100 µM (inactive)	> 100 µM (inactive)	> 100 µM (inactive)		52.5 µM (inactive)	98.4 µM (inactive)
CCCCCCCC/C=C\CCCCCCC/C=C1\C[C@](/C=C/C(=O)OC)(CO)OC1=O	2.19 µM (inactive)	2.58 µM (inactive)	10.4 µM (inactive)	10.8 µM (inactive)	3.71 µM (inactive)	8.34 µM (inactive)	1.85 µM (inactive)	3.44 µM (inactive)	1.32 µM (inactive)	2.75 µM	1.96 µM (inactive)	1.56 µM (inactive)	1.94 µM (inactive)	1.79 µM (inactive)	4.54 µM (inactive)	1.33 µM (inactive)	1.29 µM (inactive)		5.28 µM (inactive)	3.37 µM (inactive)
C=CCn1c(-c2ccc([N+](=O)[O-])cc2)csc1=N	83.2 µM (inactive)	36.6 µM (inactive)	16.4 µM (inactive)	43.8 µM (inactive)	30 µM (inactive)	> 100 µM (inactive)	54.1 µM (inactive)	61.1 µM (inactive)	11.1 µM (inactive)	64.7 µM	74.5 µM (inactive)	> 100 µM (inactive)	16.8 µM (inactive)	48.1 µM (inactive)	> 100 µM (inactive)	74.6 µM (inactive)	69.5 µM (inactive)		7.43 µM (inactive)	36.6 µM (inactive)
Cc1ccc(S(=O)(=O)N2CCCSCCSCCCSCC2)cc1		> 100 µM (inactive)	> 100 µM (inactive)	> 100 µM (inactive)	> 100 µM (inactive)		> 100 µM (inactive)	> 100 µM (inactive)	> 100 µM (inactive)	> 100 µM	> 100 µM (inactive)	> 100 µM (inactive)	> 100 µM (inactive)	> 100 µM (inactive)	> 100 µM (inactive)	> 100 µM (inactive)				> 100 µM (inactive)
COc1cc(C2OC(N)=C(C#N)C3=C2C(C)CCC3)cc(OC)c1OC (stereo not given)	97.9 µM (inactive)		37.2 µM (inactive)	95.9 µM (inactive)	> 100 µM (inactive)		> 100 µM (inactive)		> 100 µM (inactive)	> 100 µM	> 100 µM (inactive)	> 100 µM (inactive)	30.3 µM (inactive)	81.5 µM (inactive)	72.3 µM (inactive)	42.6 µM (inactive)	> 100 µM (inactive)	> 100 µM (inactive)	21.9 µM (inactive)	> 100 µM (inactive)
COc1ccc2c(c1)SC1=Nc3sc4cc(OC)ccc4[n+]3CN12	49.8 µM (inactive)	1.38 µM (inactive)	26.4 µM (inactive)	29 µM (inactive)	15.7 µM (inactive)		4.34 µM (inactive)	17.2 µM (inactive)	20.3 µM (inactive)	86.1 µM	2.89 µM (inactive)	25.5 µM (inactive)	29 µM (inactive)	36.5 µM (inactive)	54.3 µM (inactive)	29.9 µM (inactive)	32.9 µM (inactive)	20.7 µM (inactive)		11.2 µM (inactive)
Cc1cc(C)c2c(=O)n(CN3CCC(C#N)(c4ccccc4)CC3)sc2n1	21.7 µM (inactive)	14.3 µM (inactive)	52.7 µM (inactive)	> 100 µM (inactive)	34.4 µM (inactive)	> 100 µM (inactive)	> 100 µM (inactive)	40.4 µM (inactive)	20.3 µM (inactive)	39.1 µM	40 µM (inactive)	> 100 µM (inactive)	> 100 µM (inactive)	76.7 µM (inactive)	> 100 µM (inactive)	22.7 µM (inactive)	39.3 µM (inactive)		26.3 µM (inactive)	> 100 µM (inactive)
COc1cc2oc(=O)cc(C)c2cc1OC	> 100 µM (inactive)		> 100 µM (inactive)	> 100 µM (inactive)	> 100 µM (inactive)	40.2 µM (inactive)	> 100 µM (inactive)		> 100 µM (inactive)	> 100 µM	> 100 µM (inactive)	> 100 µM (inactive)	> 100 µM (inactive)	> 100 µM (inactive)	> 100 µM (inactive)	> 100 µM (inactive)		> 100 µM (inactive)		> 100 µM (inactive)
CC1(C)C2CCC1(C)C(N/C(Sc1ccccc1)=C(/C(Cl)=C(Cl)Cl)[N+](=O)[O-])C2 (stereo not given)	13.5 µM (inactive)		13.4 µM (inactive)	17.7 µM (inactive)	12.3 µM (inactive)	15 µM (inactive)	11.4 µM (inactive)	15.3 µM (inactive)		10.4 µM	12 µM (inactive)	13.9 µM (inactive)	10.4 µM (inactive)	9.06 µM (inactive)	18.1 µM (inactive)	14 µM (inactive)	15.2 µM (inactive)			4.8 µM (inactive)
C#CCN(Cc1ccc2[nH]c(N)nc(=O)c2c1)c1ccc(C(=O)NC(CCC(=O)O)C(=O)O)cc1 (stereo not given)	3.82 µM (inactive)		> 100 µM (inactive)	5.94 µM (inactive)	> 100 µM (inactive)	15.7 µM (inactive)	50.9 µM (inactive)	6.95 µM (inactive)	6.5 µM (inactive)	> 100 µM	17.5 µM (inactive)	6.71 µM (inactive)	> 100 µM (inactive)	> 100 µM (inactive)	40.4 µM (inactive)	6.38 µM (inactive)	5.3 µM (inactive)	7.46 µM (inactive)		> 100 µM (inactive)
Cc1ncc([N+](=O)[O-])n1CCNC(=O)Cn1ccnc1[N+](=O)[O-]	> 100 µM (inactive)	> 100 µM (inactive)		> 100 µM (inactive)	> 100 µM (inactive)	> 100 µM (inactive)	> 100 µM (inactive)	> 100 µM (inactive)	> 100 µM (inactive)	> 100 µM	> 100 µM (inactive)	> 100 µM (inactive)	> 100 µM (inactive)	> 100 µM (inactive)	> 100 µM (inactive)	> 100 µM (inactive)	> 100 µM (inactive)			> 100 µM (inactive)
COc1ccc(-c2cc(=O)c3c(OC)c(OC)c(OC)c(OC)c3o2)cc1 [TANGERETIN]	57 µM (inactive)	15.3 µM (inactive)	49.1 µM (inactive)	85.5 µM (inactive)	43.3 µM (inactive)	22.8 µM (inactive)	91 µM (inactive)	56.2 µM (inactive)	82.6 µM (inactive)	35 µM	> 100 µM (inactive)	65.2 µM (inactive)	28.8 µM (inactive)		> 100 µM (inactive)	53.6 µM (inactive)	53.6 µM (inactive)	67 µM (inactive)	45.4 µM (inactive)	
Cn1nnc2c(C(N)=O)ncn2c1=O [TEMOZOLOMIDE]	> 100 µM (inactive)	> 100 µM (inactive)	> 100 µM (inactive)	> 100 µM (inactive)	> 100 µM (inactive)		> 100 µM (inactive)	> 100 µM (inactive)	78.3 µM (inactive)	> 100 µM	> 100 µM (inactive)	> 100 µM (inactive)	> 100 µM (inactive)	> 100 µM (inactive)	> 100 µM (inactive)	> 100 µM (inactive)	> 100 µM (inactive)	> 100 µM (inactive)	> 100 µM (inactive)	> 100 µM (inactive)
